Where “and” joins values, the source holds several entries; their conditions need not be identical. Equal values may be shown once. Where a name gives a salt, the structure may show the parent alone.
Key:
[1] = test system: fluid secretion caused by the enterotoxin(s) present in culture filtrate from an enteropathogenic strain of E. coli; experiment: animal or person; type: in vivo, infant mice; settings: for activity in the reduction of fluid secretion (in words): mouse, in vivo
E. coli P16 = experiment: Inhibition of Diarrhoea Resulting from E. coli Infection (piglets); type: in vivo, colostrum deprived piglets; settings: Group B, Neomycin 30 mg/Kg po
Protocol: 2-4 day old piglets were dosed with the compound orally 45 mins prior to oral challenge with 25 ml of culture filtrate prepared from an enteropathogenic strain of E. coli. Control animals received drug vehicle 45 mins prior to challenge with a similar volume of material. […] After 6 hours observation some piglets were given a second dose of drug (or placebo) and observations were continued for a further six hours. The percentage inhibition in treated animals was determined as: [formula]
Colostrum deprived piglets were infected with 5 ml of an overnight culture containing 10^8 -10^9 viable E. coli P16/ml. The following day, piglets were matched by weight and scour score and then treated and observed for 6 hours in a similar manner to toxin challenged piglets, as described above.

[2] = test system: diarrhoea induced by culture filtrate from an enteropathogenic strain of E. coli; design: species or system 2-4 day old piglets; settings: in vivo, po

Row | Molecule | inhibition in vivo at 10 mg/kg ([1]; Mus musculus, po) [%] | inhibition in vivo at 50 mg/kg ([1]; Mus musculus, po) [%] | inhibition in vivo at 200 mg/kg ([1]; Mus musculus, po) [%] | also measured
1 | CNC(=Nc1cc(Cl)c(NC2=NCCN2)c(Cl)c1)NC [Example 17, 2-[2,6-dichloro-4-(1,3-dimethylguanidino)phenylimino]imidazolidine] | 33 | 37 | 53 | –
2 | Neomycin | – | – | – | % inhibition of scour (E. coli P16): 16%; Mean Scour Score ± SEM (E. coli P16; placebo 2.9 ± 0.1): 2.4 ± 0.2; Mortality over 7 days (E. coli P16; placebo 25%): 0%
3 | CCN(CC)Cc1cc(Cl)c(N=C2NCCN2)c(Cl)c1 [Example 15, 2-(2,6-dichloro-4-diethylaminomethylphenylimino)imidazolidine] | – | 28 | 37 | inhibition in vivo at 500 mg/kg ([1]; Mus musculus, po): 42%
4 | CN(C1=NCCN1)c1c(Cl)cc(N)cc1Cl [R5 H, R6 CH3, Ra p-NH2, Rb o-Cl, R11 Cl] | 37 | 62 | 72 | –
5 | Cc1cc(N)cc(C)c1N=C1NCCN1 [Example 13, 2-(4-amino-2,6-dimethylphenylimino)imidazolidine] | 66 | 54 | 69 | % inhibition of scour [2]: 78% and 69% and 62%; Mean Scour Score ± SEM, drug treated [2]: 0.5 ± 0.2 and 0.6 ± 0.3 and 0.6 ± 0.2
6 | Nc1cc(Cl)c(NC2=NCCN2)c(Cl)c1 [p-Amino clonidine dihydrochloride, p-amino Clonidine dihydrochloride] | 59 | 78 | – | ED50 ([1]; Mus musculus, po, read-out: calculated ED50): 0.25 mg/kg; activity in the reduction of fluid secretion (in words) [1]: high level of activity; % inhibition of scour [2]: 79%; Mean Scour Score ± SEM, drug treated [2]: 0.4 ± 0.2
7 | Clc1cc(N=C2NCCN2)cc(Cl)c1NC1=NCCN1 [Example 16, 2-(2,6-dichloro-4-imidazolino-2-iminophenylimino)imidazolidine] | – | – | – | inhibition in vivo at 100 mg/kg ([1]; Mus musculus, po): 29%; inhibition in vivo at 400 mg/kg ([1]; Mus musculus, po): 41%
8 | CN(C)C(=O)C(CCN1CCC(O)(c2ccc(Cl)cc2)CC1)(c1ccccc1)c1ccccc1 [Loperamide, reference compound] | – | – | – | activity in the reduction of fluid secretion (in words) [1]: considerably less active than the p-amino Clonidine dihydrochloride
9 | CCNc1cc(Cl)c(NC2=NCCN2)c(Cl)c1 [R5 H, R6 H, Ra p-NHEt, Rb o-Cl, R11 Cl] | 59 | 79 | 97 | –
10 | Nc1cc(Br)c(NC2=NCCN2)c(Br)c1 [Example 12, 2-(4-amino-2,6-dibromophenylimino)imidazolidine] | 48 | 65 | 85 | –
11 | NCc1cc(Cl)c(N=C2NCCN2)c(Cl)c1 [Example 14, 2-(4-aminomethyl-2,6-dichlorophenylimino)imidazolidine] | – | 38 | 39 | –

— patent US4450170A, “Treatment of diarrhoea with 2-aminoimidazoline derivatives” (Beecham Group Limited, priority 1980, dated 1984)
